{"source": "patent US6720342B2", "about": "“Heterocyclic compounds and their preparation and use” (Novo Nordisk A/S, priority 1996, dated 2004)", "note": "Structures can show the parent of a compound that is named as a salt.", "data": [{"target": "T1, muscarinic receptors (M1-site, pirenzepine sensitive site) (Rattus norvegicus, UniProt P08482)", "T1 construct": "Fresh cortex (0.1-1 g) from male Wistar rats (150-200 g) is homogenized; from tissue; host or cells: rat (male Wistar) cerebral cortex membranes", "T1 sequence (P08482 1-460)": "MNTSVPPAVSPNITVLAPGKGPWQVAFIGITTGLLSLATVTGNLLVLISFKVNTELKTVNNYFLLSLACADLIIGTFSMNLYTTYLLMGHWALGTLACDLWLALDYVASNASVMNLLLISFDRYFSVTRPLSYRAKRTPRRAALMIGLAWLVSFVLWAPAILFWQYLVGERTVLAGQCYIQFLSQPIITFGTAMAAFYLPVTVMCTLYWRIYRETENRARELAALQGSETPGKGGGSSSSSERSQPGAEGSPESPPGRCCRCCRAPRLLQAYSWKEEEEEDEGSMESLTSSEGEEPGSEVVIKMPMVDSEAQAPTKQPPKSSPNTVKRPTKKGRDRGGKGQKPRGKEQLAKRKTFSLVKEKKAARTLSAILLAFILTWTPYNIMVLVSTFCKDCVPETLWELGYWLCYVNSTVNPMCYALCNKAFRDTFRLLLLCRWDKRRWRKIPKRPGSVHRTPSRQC", "assay": "Inhibition of 3H-PRZ (pirenzepine, [N-methyl-3H]) binding to rat cerebral cortex membranes", "conditions": "1.0 nM 3H-Pirenzepine, 60 min at 20° C.", "protocol": "Furthermore the pharmacological properties of the compounds of the invention can also be illustrated by determining their capability to inhibit ^3H-PRZ (pirenzepine, [N-methyl-^3H]) binding to rat cerebral cortex membranes. Pirenzepine binds selectively to subtype of muscarinic receptors. Historically the type is named the M1-site, whereas pirenzepine sensitive site would be more appropriate. Although selective for M1-sites pirenzepine also interact with M2-sites.\n(§1) All preparations are performed at 0-4° C. unless otherwise indicated. Fresh cortex (0.1-1 g) from male Wistar rats (150-200 g) is homogenized for 5-10 s. in 10 ml 20 mM Hepes pH: 7.4, with an Ultra-Turrax homogenizer. The homogenizer is rinsed with 2×10 ml of buffer and the combined suspension centrifuged for 15 min at 40,000×g. The pellet is washed three times with buffer. In each step the pellet is homogenized as before in 3×10 ml of buffer and centrifuged for 10 min at 40,000×g.\nThe final pellet is homogenized in 20 mM Hepes pH: 7.4 (100 ml per g of original tissue) and used for binding assay. Aliquots of 0.5 ml is added 20 μl of test solution and 25 μl of ^3H-Pirenzepine (1.0 nM, final conc.), mixed and incubated for 60 min at 20° C. Non-specific binding is determined in triplicate using atropine (1 μg/ml, final conc.) as the test substance. After incubation samples are added 5 ml of ice-cold buffer and poured directly onto Whatman GF/C glass fiber filters under suction and immediately washed 2 times with 5 ml of ice-cold buffer. The amount of radioactivity on the filters are determined by conventional liquid scintillation counting. Specific binding is total binding minus non-specific binding.\nTest substances are dissolved in 10 ml water, at a concentration of 0.22 mg/ml. 25-75% inhibition of specific binding must be obtained before calculation of IC50.\nThe test value will be given as IC50 (the concentration (nM) of the test substance which inhibits the specific binding of ^3H-PRZ by 50%).\n(§2) IC50=(applied test substance concentration)×(Cx/Co−Cx)nM\n(§3) where Co is specific binding in control assays and Cx is the specific binding in the test assay. (The calculations assume normal mass-action kinetics).", "units": {"IC50": "µM"}, "values": [{"smiles": "CC(C#Cc1ccc(F)cc1)=CCOc1nsnc1OC1CN2CCC1C2", "note": "(stereo not drawn) [Compound 22, Endo (E)-3-(3-(5-(4-fluorophenyl)-3-methyl-2-penten-4-yn-1-yloxy)-1,2,5-thiadiazol-4-yloxy)-1-azabicyclo[2.2.1]heptane]", "IC50": 0.05}]}, {"system": "not given", "assay": "not given", "conditions": "not given", "units": {"melting point": "°C"}, "values": [{"smiles": "FC(F)(F)Oc1ccc(COc2nsnc2OC2CN3CCC2C3)cc1", "note": "(stereo not drawn) (as salt: oxalate) [Compound 14, Endo 3-(3-[4-trifluoromethoxybenzyloxy]-1,2,5-thiadiazol-4-yloxy)-1-azabicyclo[2.2.1]heptane, oxalate]", "melting point": "116 to 119"}, {"smiles": "FC(F)(F)CCCOc1nsnc1OC1CN2CCC1C2", "note": "(stereo not drawn) (as salt: oxalate) [Compound 15, Endo 3-(3-[4,4,4-trifluorobutyl-1-oxy]-1,2,5-thiadiazol-4-yloxy)-1-azabicyclo[2.2.1]heptane, oxalate]", "melting point": "135 to 137"}, {"smiles": "Fc1cc(C(F)(F)F)ccc1COc1nsnc1OC1CN2CCC1C2", "note": "(stereo not drawn) (as salt: oxalate) [Compound 16, Endo 3-(3-[2-fluoro-4-(trifluoromethyl)-benzyloxy]-1,2,5-thiadiazol-4-yloxy)-1-azabicyclo[2.2.1]heptane, oxalate]", "melting point": "112 to 114"}, {"smiles": "COc1cccc(C#CC(C)Oc2nsnc2OC2CN3CCC2C3)c1", "note": "(stereo not drawn) (as salt: oxalate) [Compound 17, Endo 3-(3-[4-(3-methoxyphenyl)-3-butyn-2-yloxy]-1,2,5-thiadiazol-4-yloxy)-1-azabicyclo[2.2.1]heptane, oxalate]", "melting point": "102 to 103"}, {"smiles": "Clc1ccc(C#CCOc2nsnc2OC2CN3CCC2C3)cc1", "note": "(stereo not drawn) (as salt: oxalate) [Compound 18, Endo 3-(3-[3-(4-chlorophenyl)-2-propynyl-1-oxy]-1,2,5-thiadiazol-4-yloxy)-1-azabicyclo[2.2.1]heptane, oxalate]", "melting point": "118 to 122"}, {"smiles": "CCC(C#Cc1cccc(OC)c1)Oc1nsnc1OC1CN2CCC1C2", "note": "(stereo not drawn) (as salt: oxalate) [Compound 19, Endo 3-(3-[1-(3-methoxyphenyl)-1-pentyn-3-yloxy]-1,2,5-thiadiazol-4-yloxy)-1-azabicyclo[2.2.1]heptane, oxalate]", "melting point": "98 to 101"}, {"smiles": "FC(F)(F)c1cccc(C#CCOc2nsnc2OC2CN3CCC2C3)c1", "note": "(stereo not drawn) (as salt: oxalate) [Compound 20, Endo 3-(3-(3-(3-trifluoromethylphenyl)-2-propynyl-1-oxy)-1,2,5-thiadiazol-4-yloxy)-1-azabicyclo[2.2.1]heptane, oxalate]", "melting point": "131 to 135"}, {"smiles": "C(#Cc1cccnc1)COc1nsnc1OC1CN2CCC1C2", "note": "(stereo not drawn) (as salt: oxalate) [Compound 23, Endo 3-(3-(3-pyridyl)-2-propyn-1-yloxy)-1,2,5-thiadiazol-4-yloxy)-1-azabicyclo[2.2.1]heptane, dioxalate]", "melting point": "136 to 139"}, {"smiles": "C(#Cc1ccccn1)COc1nsnc1OC1CN2CCC1C2", "note": "(stereo not drawn) (as salt: oxalate) [Compound 25, Endo 3-(3-(2-pyridyl)-2-propyn-1-yloxy)-1,2,5-thiadiazol-4-yloxy)-1-azabicyclo[2.2.1]heptane, dioxalate]", "melting point": "158 to 160"}, {"smiles": "C(#Cc1ccoc1)COc1nsnc1OC1CN2CCC1C2", "note": "(stereo not drawn) (as salt: oxalate) [Compound 26, Endo 3-(3-(3-(3-furyl)-2-propyn-1-yloxy)-1,2,5-thiadiazol-4-yloxy)-1-azabicyclo[2.2.1]heptane, oxalate]", "melting point": "146 to 148"}, {"smiles": "Fc1cccc(C#CCOc2nsnc2OC2CN3CCC2C3)c1", "note": "(stereo not drawn) (as salt: oxalate) [Compound 28, Endo 3-(3-(3-(3-fluorophenyl)-2-propyn-1-yloxy)-1,2,5-thiadiazol-4-yloxy-1-azabicyclo[2.2.1]heptane, oxalate]", "melting point": "175 to 177"}, {"smiles": "FC(F)(F)CCCSc1nsnc1OC1CN2CCC1C2", "note": "(stereo not drawn) (as salt: oxalate) [Compound 30, Endo 3-(3-(4,4,4-trifluorobutylthio)-1,2,5-thiadiazol-4-yloxy)-1-azabicyclo-[2.2.1]heptane, oxalate]", "melting point": "114 to 115"}, {"smiles": "N#Cc1ccc(CSc2nsnc2OC2CN3CCC2C3)cc1", "note": "(stereo not drawn) (as salt: oxalate) [Compound 31, Endo 3-(3-[4-cyanobenzylthio]-1,2,5-thiadiazol-4-yloxy)-1-azabicyclo-[2.2.1]heptane, oxalate]", "melting point": "196 to 197"}, {"smiles": "N#CCCSc1nsnc1OC1CN2CCC1C2", "note": "(stereo not drawn) (as salt: oxalate) [Compound 32, Endo 3-(3-[2-cyanoethylthio]-1,2,5-thiadiazol-4-yloxy)-1-azabicyclo-[2.2.1]heptane, oxalate]", "melting point": "168 to 169"}, {"smiles": "Fc1ccc(CSc2nsnc2OC2CN3CCC2C3)c(F)c1", "note": "(stereo not drawn) (as salt: oxalate) [Compound 33, Endo 3-(3-[2,4-difluorobenzylthio]-1,2,5-thiadiazol-4-yloxy)-1-azabicyclo-[2.2.1]heptane, oxalate]", "melting point": "98 to 100"}, {"smiles": "FCCSc1nsnc1OC1CN2CCC1C2", "note": "(stereo not drawn) (as salt: oxalate) [Compound 34, Endo 3-(3-[2-fluoroethyl-1-thio]-1,2,5-thiadiazol-4-yloxy)-1-azabicyclo-[2.2.1]heptane, oxalate]", "melting point": "131 to 133"}, {"smiles": "COc1cccc(C#CC(Oc2nsnc2OC2CN3CCC2C3)C(C)C)c1", "note": "(stereo not drawn) (as salt: oxalate) [Compound 39, Endo 3-(3-[1-(3-methoxyphenyl)-4-methyl-1-pentyn-3-yloxy]-1,2,5-thiadiazol-4-yloxy)-1-azabicyclo[2.2.1]heptane, oxalate]", "melting point": "144 to 147"}, {"smiles": "FC(F)(F)COc1nsnc1OC1CN2CCC1C2", "note": "(stereo not drawn) (as salt: oxalate) [Compound 40, Endo 3-(3-[2,2,2-trifluoroethyl-1-oxy]-1,2,5-thiadiazol-4-yloxy)-1-azabicyclo[2.2.1]heptane, oxalate]", "melting point": "153 to 156"}, {"smiles": "C1CC(COc2nsnc2OC2CN3CCC2C3)C1", "note": "(stereo not drawn) (as salt: oxalate) [Compound 41, Endo 3-(3-cyclobutylmethyloxy-1,2,5-thiadiazol-4-yloxy)-1-azabicyclo-[2.2.1]heptane, oxalate]", "melting point": "96 to 99"}, {"smiles": "CC(C#Cc1ccc(F)cc1)=CCOc1nsnc1OC1CN2CCC1C2", "note": "(stereo not drawn) [Compound 22, Endo (E)-3-(3-(5-(4-fluorophenyl)-3-methyl-2-penten-4-yn-1-yloxy)-1,2,5-thiadiazol-4-yloxy)-1-azabicyclo[2.2.1]heptane]", "melting point": "82 to 84"}]}, {"target": "muscarinic acetylcholine receptors", "assay": "Inhibition of specific binding of 3H-Oxotremorine-M (3H-Oxo) to rat cortex membranes", "conditions": "rat cortex homogenate, 1.0 nM 3H-Oxotremorine, 30 min at 25° C.", "excerpt": "The pharmacological properties of the compounds of the invention can be illustrated by determining their capability to inhibit the specific binding of ^3H-Oxotremorine-M (^3H-Oxo). Birdsdall N. J. M., Hulme E. C., and Burgen A. S. V. (1980). “The Character of Muscarinic Receptors in Different Regions of the Rat Brain”. Proc. Roy. Soc. London (Series B) 207, 1.\n^3H-Oxo labels muscarinic receptor in the CNS (with a preference for agonist domains of the receptors). Three different sites are labelled by ^3H-Oxo. […] Using the present experimental conditions only the high and medium affinity sites are determined.\nThe inhibitory effects of compounds on ^3H-Oxo binding reflects the affinity for muscarinic acetylcholine receptors.\nas §1, with “(150-250” for “(150-200”, “s” for “s.”, “10” for “2×10”, “min.” for “min”, “2×10” for “3×10”\nThe final pellet is homogenized in 20 mM Hepes pH: 7.4 (100 ml per g of original tissue) and used for binding assay. Aliquots of 0.5 ml is added 25 μl of test solution and 25 μl of ^3H-Oxotremorine (1.0 nM, final concentration) mixed and incubated for 30 min. at 25° C. Non-specific binding is determined in triplicate using arecoline (1 μg/ml, final concentration) as the test substance. After incubation samples are added 5 ml of ice-cold buffer and poured directly onto Whatman GF/C glass fiber filters under suction and immediately washed 2 times with 5 ml of ice-cold buffer. The amount of radioactivity on the filters are determined by conventional liquid scintillation counting. Specific binding is total binding minus non specific binding.\nTest substances are dissolved in 10 ml water (if necessary heated on a steambath for less than 5 min.) at a concentration of 2.2 mg/ml. 25-75% inhibition of specific binding must be obtained before calculation of IC50.\nThe test value will be given as IC50 (the concentration (nM) of the test substance which inhibits the specific binding of ^3H-Oxo by 50%).\nas §2, §3", "units": {"IC50": "µM"}, "values": [{"smiles": "CC(C#Cc1ccc(F)cc1)=CCOc1nsnc1OC1CN2CCC1C2", "note": "(stereo not drawn) [Compound 22, Endo (E)-3-(3-(5-(4-fluorophenyl)-3-methyl-2-penten-4-yn-1-yloxy)-1,2,5-thiadiazol-4-yloxy)-1-azabicyclo[2.2.1]heptane]", "IC50": 0.19}]}]}
